One data set concerns the target T1, human recombinant COX-2 (Homo sapiens, UniProt P35354).
T1 construct: purchased Cayman Chemical Co. 60122
T1 sequence (P35354 18-604): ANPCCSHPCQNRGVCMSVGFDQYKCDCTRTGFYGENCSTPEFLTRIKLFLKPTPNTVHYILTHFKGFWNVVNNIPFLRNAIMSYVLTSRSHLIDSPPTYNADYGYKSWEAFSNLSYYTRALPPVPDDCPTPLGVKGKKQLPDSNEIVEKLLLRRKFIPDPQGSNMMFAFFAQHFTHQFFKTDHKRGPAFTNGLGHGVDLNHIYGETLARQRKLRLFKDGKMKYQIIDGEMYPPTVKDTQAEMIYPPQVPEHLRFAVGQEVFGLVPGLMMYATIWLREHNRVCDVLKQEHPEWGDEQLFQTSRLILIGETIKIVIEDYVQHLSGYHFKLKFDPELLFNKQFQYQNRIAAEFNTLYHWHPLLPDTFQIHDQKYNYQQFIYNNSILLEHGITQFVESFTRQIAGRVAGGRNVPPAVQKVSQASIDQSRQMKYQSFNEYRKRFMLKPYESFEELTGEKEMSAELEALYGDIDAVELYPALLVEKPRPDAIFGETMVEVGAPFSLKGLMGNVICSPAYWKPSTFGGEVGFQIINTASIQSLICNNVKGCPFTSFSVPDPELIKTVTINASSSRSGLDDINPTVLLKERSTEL
As to the kind of experiment: COX-2 oxygenation of 2-AG, oxygen electrode. The note with it: for COX-2 activity (% of control): substrate 2-AG 10 µM, initial activity 10-30 s, n = 3. The class given is biochemical. The method, then: The assay was performed according to Meade et al. with minor modifications using an oxygen electrode chamber with integral stirring (Oxygraph System, Hansatech Instruments, King’s Lynn, U.K.). The electrode was calibrated to ambient temperature and air pressure. Samples were prepared in 0.1 M Tris-HCl buffer pH 7.4 containing 1 µM haematin, 2 mM phenol, 5 mM EDTA, 10 µM substrate (AA or 2-AG) (final assay volume was 2 ml). After addition of test substance dissolved in DMSO (final assay concentration 1%) a baseline was established for 5 min before initiation of reaction by addition of 200 units COX-1 or COX-2. Change in oxygen consumption was monitored for approximately 5 min.
(§1) FAAH inhibition was calculated using log(inhibitor) vs. response with variable slope (four parameters) algorithm in the GraphPad Prism computer program (GraphPad Software Inc., San Diego, CA. USA). […] The two curves were compared by Akaike’s informative criteria and the best fit was chosen. Initial COX activities were calculated as the change in oxygen tension between 10 and 30 seconds after addition of enzyme.

Another data set addresses T2, rat brain FAAH (Rattus norvegicus, UniProt P97612).
T2 construct: FAAH activity was quantified by measuring hydrolysis of tritium labelled AEA in rat brain homogenates; from tissue; host or cells: rat brain (minus cerebella), Wistar or Sprague-Dawley, washed membrane pellets
T2 sequence (P97612 1-579): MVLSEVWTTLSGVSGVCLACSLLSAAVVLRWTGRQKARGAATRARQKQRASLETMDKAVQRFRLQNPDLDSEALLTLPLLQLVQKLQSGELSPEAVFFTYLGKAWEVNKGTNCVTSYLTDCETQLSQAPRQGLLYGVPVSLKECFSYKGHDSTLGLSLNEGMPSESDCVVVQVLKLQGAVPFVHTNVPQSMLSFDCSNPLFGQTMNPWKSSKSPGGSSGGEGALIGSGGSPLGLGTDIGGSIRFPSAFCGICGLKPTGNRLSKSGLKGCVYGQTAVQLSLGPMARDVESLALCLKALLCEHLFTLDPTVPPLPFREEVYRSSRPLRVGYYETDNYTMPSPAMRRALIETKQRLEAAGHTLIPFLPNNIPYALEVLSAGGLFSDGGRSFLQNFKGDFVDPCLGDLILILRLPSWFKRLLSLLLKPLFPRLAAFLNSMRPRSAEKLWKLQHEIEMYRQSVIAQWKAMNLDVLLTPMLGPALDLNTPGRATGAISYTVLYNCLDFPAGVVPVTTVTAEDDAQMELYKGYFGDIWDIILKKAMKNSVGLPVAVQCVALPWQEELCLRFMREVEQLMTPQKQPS
As to the kind of experiment: FAAH hydrolysis of [3H]AEA in rat brain homogenates. The class given is biochemical. The note with it: 0.5 µM AEA. The method, then: Brains (minus cerebella) from adult Wistar or Sprague-Dawley stored at −80°C were thawed, weighed and homogenized in cold buffer (20 mM HEPES, 1 mM MgCl2 pH 7.0). Homogenates were centrifuged at 35,000 g at 4°C for 20 min and the pellet was resuspended in homogenization buffer (repeated twice) before being incubated at 37°C for 15 min to degrade any endogenous substrate that might interfere with the FAAH assay. Following centrifugation, the pellets were resuspended in cold buffer (50 mM Tris-HCl, 1 mM EDTA, 3 mM MgCl2, pH 7.4). The protein concentration of each homogenates was determined according to the Bradford assay after which the samples were frozen in aliquots at −80°C until used for FAAH assay. Ethical permission for the animal experiments was obtained from the local animal research ethical committee (Umeå Ethical Committee for Animal Research, Umeå, Sweden).
The assay was performed according to Boldrup et al.. Homogenates (1 µg protein per assay) diluted in 10 mM Tris-HCl, 1 mM EDTA, pH 7.4 or pH 5.1 were mixed with test substance dissolved in DMSO (total concentration in assay 5%) at an ambient temperature of 4°C. Reactions were initiated by addition of AEA-[^3H] (assay concentration 0.5 µM) in 10 mM Tris-HCl, 1 mM EDTA, pH 7.4 containing 10 mg ml^−1 fatty acid-free bovine serum and incubation at 37°C which was allowed to proceed for 10 min. […] Blank samples contained buffer instead of homogenate and DMSO (5%). The assay volume of each sample was 200 µl. The pH values given in the text were determined by measurement at 37°C of scaled-up mixtures of homogenization and assay buffers. The reaction was terminated by addition of 400 µl activated charcoal (80 µl activated charcoal +320 µl 0.5 M HCl) and placement of samples on ice. Samples were kept in room temperature for 45–60 min before being centrifuged at 2500 rpm for 10 min. Aliquots (200 µl) of the supernatant was analyzed for tritium content by liquid scintillation with quench correction.
as §1

The conditions of data set [1]: cited from earlier work.
Setting [2] is: pH 6.0, read-out: IC50, inhibition of [3H]AEA hydrolysis (converted).
The mark [3] stands for this setting: pH 6.0, read-out: pI50, inhibition of [3H]AEA hydrolysis (converted).
Where [4] appears, read: pH 7.3, read-out: IC50, inhibition of [3H]AEA hydrolysis (converted).
The mark [5] stands for this setting: pH 7.3, read-out: pI50, inhibition of [3H]AEA hydrolysis (converted).

Read-outs that look alike come from different tables or passages of the source.

As to `CC(C(=O)O)c1ccc(CC(C)(C)O)cc1` (stereo not drawn) [2′-OH-Ibuprofen, 2-[4-(2-hydroxy-2-methylpropyl)phenyl]propionic acid], the “COX-2 activity (% of control)” value was 125±24 % of control on human recombinant COX-2 (100 µM NSAID) and 115±21 % of control at human recombinant COX-2 (300 µM NSAID). Besides, the IC50 on rat brain FAAH (setting [2]) and on rat brain FAAH (setting [3]) was 380 µM in each case. Also, at rat brain FAAH (read-out: % inhibition of [3H]AEA hydrolysis @ 1000 µM, pH 7.3, 1000 µM compound), the inhibition at 1000 µM amounted to 15 ± 7%. In data set [1] (24 h after administration of 400 mg of ibuprofen), the urinary recovery is listed as 23%.

On to `CC(CO)Cc1ccc(C(C)C(=O)O)cc1` (stereo not drawn) [3′-OH-Ibuprofen, 2-[4-(3-hydroxy-2-methylpropyl)phenyl]propionic acid], for which the “COX-2 activity (% of control)” value on human recombinant COX-2 (100 µM NSAID) is 73±14 % of control; at human recombinant COX-2 (300 µM NSAID) it was 91±2 % of control. In addition, the “inhibition of COX-2-catalysed oxygenation of 2-AG at longer incubation times” value on human recombinant COX-2 (lower potency than the parent compound, initial inhibition (10-30 s) only modestly affected) is “retained the ability of ibuprofen to inhibit”. Further, the IC50 on rat brain FAAH (setting [2]) is 200 µM; at rat brain FAAH (setting [3]), 200 µM; on rat brain FAAH (setting [4]), 990 µM; on rat brain FAAH (setting [5]), 977 µM.

For the molecule `CC(C(=O)O)c1ccc(-c2ccc(O)cc2)c(F)c1` (stereo not drawn) [4′-OH-Flurbiprofen], the “COX-2 activity (% of control)” value is given as 39±11 % of control on human recombinant COX-2 (30 µM NSAID), 24±4 % of control at human recombinant COX-2 (100 µM NSAID) and −6±9 % of control on human recombinant COX-2 (300 µM NSAID). Besides, the “inhibition of cyclooxygenation of 2-AG” value on human recombinant COX-2 (30 µM compound) is listed as “partially”; at human recombinant COX-2 (100 µM compound), “partially”; at human recombinant COX-2 (300 µM compound), “completely”. In addition, the IC50 was 84 µM at rat brain FAAH (setting [2]), 85.1 µM at rat brain FAAH (setting [3]), 310 µM on rat brain FAAH (setting [4]) and 316 µM at rat brain FAAH (setting [5]). Further, the “share of the dose recovered in the urine” value in data set [1] (flurbiprofen 50 mg a day for 10 consecutive days) is listed as 43%.

As usually defined, the inhibition is the change of the read-out against control, counted positive when it falls.

These data come from paper PMC4111603 (PLoS ONE, 2014).
